Data as given in patent US20240069010A1, “TISSUE ORGANOID BIOPRINTING AND HIGH-THROUGHPUT SCREENING METHODOLOGY” (priority 2020, published 2024).
Read-outs that look alike come from different tables or passages of the source.

Assays:
BT-474 organoids = test: Endpoint ATP-release assay (CellTiter-Glo) of organoid viability; format: cell-based; conditions: for viability at 0.1 µM / viability at 1 µM / viability at 10 µM / viability at 50 µM: Homo sapiens
Method: All drug treatments of 3D organoids were performed in serum-free conditions in MammoCult™ medium supplemented with 1% antibiotic-antimycotic (Gibco 15240-062). A detailed protocol for the drug screening has been published previously in Phan, N. et al. supra; and Nguyen, H. T. L. & Soragni, supra. Briefly, the culture medium was fully removed three days after seeding and replaced with 100 μL of MammoCult™ medium containing the indicated treatments using an automated pipetting system (EpMotion® 96). After treatment, we transferred the organoids to the HSLCI for imaging. […] The media was aspirated from each well and replaced with 50 μL of 5 mg/mL Dispase (Thermo-Fisher) solution to digest the Matrigel. After a 25-minute incubation at 37° C., the plate was placed on an orbital shaker for 5 minutes at 80 RPM. We then added 30 μL of CellTiter-Glo® reagent (Promega), sealed the plate with film, covered the plate with foil to protect from light, shook the plate for 5 minutes at 80 RPM, and incubated at room temperature for an additional 20 minutes. We used a SpectraMax iD3 plate reader to measure luminescence. The program parameters for luminescence readings were 5 minutes of shaking prior to reading, reading all wavelengths, and integrating signal over 500 ms. Organoid viability within each well was calculated by dividing the luminescent signal from each well by the mean luminescence of the control (1% DMSO) wells. Two-tailed independent t-tests were performed to assess the statistical significance of the differences in organoid mass and cell viability. P-values less than 0.05 were deemed significant.

MCF-7 organoids = test: as above; format: cell-based; conditions: for viability at 0.1 µM / viability at 1 µM / viability at 10 µM / viability at 50 µM: Homo sapiens
Method: All drug treatments of 3D organoids were performed in serum-free conditions in MammoCult™ medium supplemented with 1% antibiotic-antimycotic (Gibco 15240-062). A detailed protocol for the drug screening has been published previously in Phan, N. et al. supra; and Nguyen, H. T. L. & Soragni, supra. Briefly, the culture medium was fully removed three days after seeding and replaced with 100 μL of MammoCult™ medium containing the indicated treatments using an automated pipetting system (EpMotion® 96). After treatment, we transferred the organoids to the HSLCI for imaging. Organoids were imaged by HSLCI between 6 hours and 48 hours after treatment. After imaging, we performed an ATP assay to assess cell viability in accordance with the manufacturer's instructions. The media was aspirated from each well and replaced with 50 μL of 5 mg/mL Dispase (Thermo-Fisher) solution to digest the Matrigel. After a 25-minute incubation at 37° C., the plate was placed on an orbital shaker for 5 minutes at 80 RPM. We then added 30 μL of CellTiter-Glo® reagent (Promega), sealed the plate with film, covered the plate with foil to protect from light, shook the plate for 5 minutes at 80 RPM, and incubated at room temperature for an additional 20 minutes. We used a SpectraMax iD3 plate reader to measure luminescence. The program parameters for luminescence readings were 5 minutes of shaking prior to reading, reading all wavelengths, and integrating signal over 500 ms. Organoid viability within each well was calculated by dividing the luminescent signal from each well by the mean luminescence of the control (1% DMSO) wells. Two-tailed independent t-tests were performed to assess the statistical significance of the differences in organoid mass and cell viability. P-values less than 0.05 were deemed significant.

[1] = BT-474, 48 h, read-out: Comparisons of cell viability measures by ATP detection assay, Mean mass ± SD
[2] = BT-474, 72 h, read-out: Organoid viability by endpoint ATP assay, Viability ± SD
[3] = MCF7, 6 h, read-out: Comparisons of cell viability measures by ATP detection assay, Mean mass ± SD
[4] = MCF7, 72 h, read-out: Organoid viability by endpoint ATP assay, Viability ± SD

CS(=O)(=O)CCNCc1ccc(-c2ccc3ncnc(Nc4ccc(OCc5cccc(F)c5)c(Cl)c4)c3c2)o1 [Lapatinib, lapatinib]
Organoid viability by endpoint ATP assay, Viability ± SD (BT-474 organoids; BT-474, 0.1 μM, 72 h of treatment, luminescence relative to 1% DMSO control): significant reductions in viability | viability at 0.1 µM (BT-474 organoids; BT-474, listed as printed as 48 hours, 0.1 μM, relative to 1% DMSO, read-out: Comparisons of cell viability measures by ATP detection assay, Mean mass ± SD): 70 ± 18% | viability at 1 µM (BT-474 organoids; BT-474, listed as printed as 48 hours, 1 μM, relative to 1% DMSO, read-out: Comparisons of cell viability measures by ATP detection assay, Mean mass ± SD): 43 ± 9% | viability at 10 µM (BT-474 organoids; BT-474, listed as printed as 48 hours, 10 μM, relative to 1% DMSO, read-out: Comparisons of cell viability measures by ATP detection assay, Mean mass ± SD): 32 ± 4% | viability at 50 µM (BT-474 organoids; BT-474, listed as printed as 48 hours, relative to 1% DMSO, read-out: Comparisons of cell viability measures by ATP detection assay, Mean mass ± SD): 9 ± 7% | viability at 0.1 µM (BT-474 organoids; BT-474, 0.1 μM, 72 h of treatment, luminescence relative to 1% DMSO control, read-out: Organoid viability by endpoint ATP assay, Viability ± SD): 70 ± 18% | viability at 1 µM (BT-474 organoids; BT-474, 1 μM, 72 h of treatment, luminescence relative to 1% DMSO control, read-out: Organoid viability by endpoint ATP assay, Viability ± SD): 43 ± 9% | viability at 10 µM (BT-474 organoids; BT-474, 10 μM, 72 h of treatment, luminescence relative to 1% DMSO control, read-out: Organoid viability by endpoint ATP assay, Viability ± SD): 32 ± 4% | viability at 50 µM (BT-474 organoids; BT-474, 72 h of treatment, luminescence relative to 1% DMSO control, read-out: Organoid viability by endpoint ATP assay, Viability ± SD): 9 ± 7% | viability at 0.1 µM (MCF-7 organoids; MCF7, MCF-7, 0.1 μM, 72 h of treatment, luminescence relative to 1% DMSO control, read-out: Organoid viability by endpoint ATP assay, Viability ± SD): 100 ± 3% | viability at 1 µM (MCF-7 organoids; MCF7, MCF-7, 1 μM, 72 h of treatment, luminescence relative to 1% DMSO control, read-out: Organoid viability by endpoint ATP assay, Viability ± SD): 101 ± 4% | viability at 10 µM (MCF-7 organoids; MCF7, MCF-7, 10 μM, 72 h of treatment, luminescence relative to 1% DMSO control, read-out: Organoid viability by endpoint ATP assay, Viability ± SD): 66 ± 7% | viability at 50 µM (MCF-7 organoids; MCF7, MCF-7, 72 h of treatment, luminescence relative to 1% DMSO control, read-out: Organoid viability by endpoint ATP assay, Viability ± SD): 14 ± 3% | viability at 0.1 µM (MCF-7 organoids; MCF7, listed as printed as 6 hours, 0.1 μM, relative to 1% DMSO, read-out: Comparisons of cell viability measures by ATP detection assay, Mean mass ± SD): 100 ± 3% | viability at 1 µM (MCF-7 organoids; MCF7, listed as printed as 6 hours, 1 μM, relative to 1% DMSO, read-out: Comparisons of cell viability measures by ATP detection assay, Mean mass ± SD): 101 ± 4% | viability at 10 µM (MCF-7 organoids; MCF7, listed as printed as 6 hours, 10 μM, relative to 1% DMSO, read-out: Comparisons of cell viability measures by ATP detection assay, Mean mass ± SD): 66 ± 7% | viability at 50 µM (MCF-7 organoids; MCF7, listed as printed as 6 hours, relative to 1% DMSO, read-out: Comparisons of cell viability measures by ATP detection assay, Mean mass ± SD): 14 ± 3%

CN[C@@H]1C[C@H]2O[C@@](C)([C@@H]1OC)n1c3ccccc3c3c4c(c5c6ccccc6n2c5c31)C(=O)NC4 [Staurosporine, staurosporine]
Organoid viability by endpoint ATP assay, Viability ± SD (BT-474 organoids; BT-474, 1 μM, 72 h of treatment, luminescence relative to 1% DMSO control): near-zero viability | Organoid viability by endpoint ATP assay, Viability ± SD (BT-474 organoids; BT-474, 10 μM, 72 h of treatment, luminescence relative to 1% DMSO control): near-zero viability | viability at 0.1 µM (BT-474 organoids; [1]): 58 ± 14% | viability at 1 µM (BT-474 organoids; [1]): 2 ± 1% | viability at 10 µM (BT-474 organoids; [1]): 1% | viability at 0.1 µM (BT-474 organoids; [2]): 58 ± 14% | viability at 1 µM (BT-474 organoids; [2]): 2 ± 1% | viability at 10 µM (BT-474 organoids; [2]): 1% | viability at 0.1 µM (MCF-7 organoids; [3]): 50 ± 8% | viability at 1 µM (MCF-7 organoids; [3]): 17 ± 4% | viability at 10 µM (MCF-7 organoids; [3]): 13 ± 3% | viability at 0.1 µM (MCF-7 organoids; [4]): 50 ± 8% | viability at 1 µM (MCF-7 organoids; [4]): 17 ± 4% | viability at 10 µM (MCF-7 organoids; [4]): 13 ± 3% | Organoid viability by endpoint ATP assay, Viability ± SD (MCF-7 organoids; MCF-7, 1 μM, 72 h of treatment, luminescence relative to 1% DMSO control): near-zero viability | Organoid viability by endpoint ATP assay, Viability ± SD (MCF-7 organoids; MCF-7, 10 μM, 72 h of treatment, luminescence relative to 1% DMSO control): near-zero viability
